According to patent publication US20130053243A1, “PLANTS HAVING INCREASED TOLERANCE TO HERBICIDES” (BASF SE, priority 2010, published 2013):

Columns and labels:
[1] = biological target: T1, Arabidopsis HPPD variant Q293H (Arabidopsis thaliana, UniProt P93836, Q293H); test: HPPD activity assay, mutant enzyme; assay type: biochemical
T1 construct: His6 (N); made in house; host or cells: E. coli BL21 (DE3)
Method: (§1) HPPD produces homogentisic acid and CO2 from 4-hydroxyphenylpyruvate (4-HPP) and O2. The activity assay for HPPD is based on the analysis of homogentisic acid by reversed phase HPLC.
(§2) The assay mixture can contain 150 mM potassium phosphate buffer pH 7.0, 50 mM L-ascorbic acid, 1 μM FeSO4 and 7 μg of purified enzyme in a total volume of 1 ml.
(§3) Inhibitors are dissolved in DMSO (dimethylsulfoxide) to a concentration of 20 mM or 0.5 mM, respectively. From this stock solution serial five-fold dilutions are prepared in DMSO, which are used in the assay. The respective inhibitor solution accounts for 1% of the assay volume. Thus, final inhibitor concentrations range from 200 μM to 2.5 nM or from 5 μM to 63 pM, respectively.
(§4) After a preincubation of 30 min the reaction is started by adding 4-HPP to a final concentration of 0.1 mM. The reaction is allowed to proceed for 120 min at room temperature. The reaction is stopped by addition of 100 μl of 4.5 M phosphoric acid.
(§5) The sample is extracted on an Oasis® HLB cartridge 3 cc/60 mg (Waters) that was preequilibrated with 63 mM phosphoric acid. L-ascorbic acid is washed out with 3 ml of 63 mM phosphoric acid. Homogentisate is eluted with 1 ml of a 1:1 mixture of 63 mM phosphoric acid and methanol (w/w).
(§6) 10 μl of the eluate is analyzed by reversed phase HPLC on a Symmetry® C18 column (particle size 3.5 μm, dimensions 4.6×100 mm; Waters) using 5 mM H3PO4/15% ethanol (w/w) as an eluent.
(§7) Homogentisic acid is detected electrochemically and quantified by measuring peak areas (Empower software; Waters).
(§8) Activities are normalized by setting the uninhibited enzyme activity to 100%. IC50 values are calculated using non-linear regression.
(§9) The assay mixture can contain 150 mM potassium phosphate buffer pH 7.0, 50 mM L-ascorbic acid, 100 μM Catalase (Sigma-Aldrich), 1 μM FeSO4 and 0.2 units of purified HPPD enzyme in a total volume of 505 μl. 1 unit is defined as the amount of enzyme that is required to produce 1 nmol of HGA per minute at 20° C.
(§10) After a preincubation of 30 min the reaction is started by adding 4-HPP to a final concentration of 0.05 mM. The reaction is allowed to proceed for 45 min at room temperature. The reaction is stopped by the addition of 50 μl of 4.5 M phosphoric acid. The sample is filtered using a […] pore size PVDF filtration device.
(§11) 5 μl of the cleared sample is analyzed on an Atlantis T3 column (particle size 3 μm, dimensions 3×50 mm; Waters) by isocratic elution using 90% 10 mM NaH2PO4 pH 2.2, 10% methanol (v/v).
(§12) HGA is detected electrochemically at 750 mV (mode: DC; polarity: positive) and quantified by integrating peak areas (Empower software; Waters).
(§13) Inhibitors are dissolved in DMSO (dimethylsulfoxide) to a concentration of 0.5 mM. From this stock solution serial five-fold dilutions are prepared in DMSO, which are used in the assay. The respective inhibitor solution accounts for 1% of the assay volume. Thus, final inhibitor concentrations range from 5 μM to 320 pM, respectively. Activities are normalized by setting the uninhibited enzyme activity to 100%. IC50 values are calculated using non-linear regression.
(§14) Purified, mutant HPPD enzymes are obtained by the methods described above. Dose response and kinetic measurements are carried out using the described HPPD activity assay. Apparent michaelis constants (Km) and maximal reaction velocities (Vmax) are calculated by non-linear regression with the software GraphPad Prism 5 (GraphPad Software, La Jolla, USA) using a substrate inhibition model. Apparent kcat values are calculated from Vmax assuming 100% purity of the enzyme preparation. Weighted means (by standard error) of Km and IC50 values are calculated from at least three independent experiments. The Cheng-Prusoff equation for competitive inhibition (Cheng, Y. C.; Prusoff, W. H. Biochem Pharmacol 1973, 22, 3099-3108) is used to calculate dissociation constants (Ki). Examples of the data obtained are depicted in Table 13.

[2] = biological target: T2, Arabidopsis HPPD variant Q293N (Arabidopsis thaliana, UniProt P93836, Q293N); test: HPPD activity assay, mutant enzyme; assay type: biochemical
T2 construct: His6 (N); made in house; host or cells: E. coli BL21 (DE3)
Method: as §1, §2, §3, §4, §5, §6, §7, §8, §9, §10, §11, §12, §13, §14

[3] = test system: transgenic soybean plants, event AV3639 (AtHPPD); test: Greenhouse spray test, transgenic soybean T0 cuttings; assay type: in vivo, Glycine max; conditions: two weeks after treatment, scale 0 (no injury) to 9 (complete death)
Method: (§15) Transgenic plants expressing heterologous HPPD or HST enzymes are tested for tolerance against coumarone-derivative herbicides in greenhouse experiments.
(§16) For post emergence treatment, the test plants are first grown to a height of 3 to 15 cm, depending on the plant habit, and only then treated with the herbicides. For this purpose, the test plants are either sown directly and grown in the same containers, or they are first grown separately and transplanted into the test containers a few days prior to treatment.
(§17) For testing of T0 plants, cuttings can be used. In the case of soybean plants, an optimal shoot for cutting is about 7.5 to 10 cm tall, with at least two nodes present. Each cutting is taken from the original transformant (mother plant) and dipped into rooting hormone powder (indole-3-butyric acid, IBA). The cutting is then placed in oasis wedges inside a bio-dome. Wild type cuttings are also taken simultaneously to serve as controls. The cuttings are kept in the bio-dome for 5-7 days and then transplanted to pots and then acclimated in the growth chamber for two more days. Subsequently, the cuttings are transferred to the greenhouse, acclimated for approximately 4 days, and then subjected to spray tests as indicated. Depending on the species, the plants are kept at 10-25° C. or 20-35° C. The test period extends over 3 weeks. During this time, the plants are tended and their response to the individual treatments is evaluated. Herbicide injury evaluations are taken at 2 and 3 weeks after treatment. Plant injury is rated on a scale of 0 to 9, 0 being no injury and 9 being complete death.

[4] = test system: transgenic soybean plants, event AV3641 (AtHPPD); test: as above; assay type: in vivo, Glycine max; conditions: two weeks after treatment, scale 0 (no injury) to 9 (complete death)
Method: as §15, §16, §17

[5] = test system: transgenic soybean plants, event AV3646 (CrHPPD1); test: as above; assay type: in vivo, Glycine max; conditions: two weeks after treatment, scale 0 (no injury) to 9 (complete death)
Method: as §15, §16, §17

[6] = test system: transgenic soybean plants, event LG4628 (CrHPPD2); test: as above; assay type: in vivo, Glycine max; conditions: two weeks after treatment, scale 0 (no injury) to 9 (complete death)
Method: as §15, §16, §17

T2 sequence (P93836 whole entry Q293N): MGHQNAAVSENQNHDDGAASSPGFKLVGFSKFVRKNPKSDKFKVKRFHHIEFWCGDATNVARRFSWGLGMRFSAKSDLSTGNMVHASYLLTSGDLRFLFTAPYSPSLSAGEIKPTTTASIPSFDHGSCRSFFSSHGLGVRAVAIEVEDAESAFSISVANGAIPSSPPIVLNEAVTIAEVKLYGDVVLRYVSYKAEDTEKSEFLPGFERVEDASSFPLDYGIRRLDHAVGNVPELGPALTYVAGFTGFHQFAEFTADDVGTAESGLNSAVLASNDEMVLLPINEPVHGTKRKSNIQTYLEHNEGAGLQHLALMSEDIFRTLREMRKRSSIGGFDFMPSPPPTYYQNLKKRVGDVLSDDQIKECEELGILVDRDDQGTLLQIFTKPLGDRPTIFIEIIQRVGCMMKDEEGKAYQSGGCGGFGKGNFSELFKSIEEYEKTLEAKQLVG
T1 sequence (P93836 whole entry Q293H): as the sequence (P93836 whole entry Q293N) above, with N293H counted along it

## CC1=NOC(c2c(Cl)ccc(C3=C(O)c4ncccc4N(CC(F)F)S3(=O)=O)c2Cl)C1 (stereo not drawn) [Inhibitor 1, 3-[2,4-dichloro-3-(3-methyl-4,5-dihydroisoxazol-5-yl)phenyl]-1-(2,2-difluoroethyl)-2,2-dioxo-pyrido[3,2-c]thiazin-4-ol]
[1]
  Ki: 23 nM
[2]
  Ki: 41 nM
[3]; 50 g/ha
  Injury evaluation (plant injury rating): 3
[3]; 100 g/ha
  Injury evaluation (plant injury rating): 2
[3]; 200 g/ha
  Injury evaluation (plant injury rating): 3
[4]; 50 g/ha
  Injury evaluation (plant injury rating): 2
[4]; 100 g/ha
  Injury evaluation (plant injury rating): 2
[4]; 200 g/ha
  Injury evaluation (plant injury rating): 3
[5]; 50 g/ha
  Injury evaluation (plant injury rating): 3
[5]; 100 g/ha
  Injury evaluation (plant injury rating): 4
[5]; 200 g/ha
  Injury evaluation (plant injury rating): 4
[6]; 50 g/ha
  Injury evaluation (plant injury rating): 4
[6]; 100 g/ha
  Injury evaluation (plant injury rating): 3
[6]; 200 g/ha
  Injury evaluation (plant injury rating): 4

## Cc1c(C(=O)c2cnn(C)c2O)ccc(S(C)(=O)=O)c1C1=NOCC1 [Topramezone, reference compound]
[1]
  Ki: 14 nM
[2]
  Ki: 36 nM
[3]; 6.25 g/ha
  Injury evaluation (plant injury rating): 4
[3]; 12.5 g/ha
  Injury evaluation (plant injury rating): 5
[4]; 6.25 g/ha
  Injury evaluation (plant injury rating): 4
[4]; 12.5 g/ha
  Injury evaluation (plant injury rating): 4
[5]; 6.25 g/ha
  Injury evaluation (plant injury rating): 6
[5]; 12.5 g/ha
  Injury evaluation (plant injury rating): 7
[6]; 6.25 g/ha
  Injury evaluation (plant injury rating): 5
[6]; 12.5 g/ha
  Injury evaluation (plant injury rating): 6
